1 molecule from publication PMC7332124, “Design, One Pot Synthesis and Molecular Docking Studies of Substituted-1H-Pyrido[2,1-b] Quinazolines as Apoptosis-Inducing Anticancer Agents” (Asian Pacific Journal of Cancer Prevention : APJCP, 2020) can be followed below.

The test system of data set [1] is A549 cells. The data set can be described thus: Acridine orange/ethidium bromide (AO/EB) staining. The following applies: 0.5, 1, 2.5 and 5 µM, 72 h. Type of data set: cell-based, human. The protocol:
A549 cells were seeded at a concentration of 1.2x10^5 cells/ml and treated with various concentrations of compound 4q and the plates were incubated for 72 h. Then, 100 µl from fluorescent dyes comprising both Acridine Orange (Helfrich et al., 2016) and Ethidium Bromide (Vundru et al., 2013) were added into each well in equal volumes (10 µg/ml) respectively (Nekkanti et al., 2017), then the cells were Immediately visualized under fluorescence microscope with excitation (488 nm) and emission (550 nm) at 200X magnification.

The test system of data set [2] is A549 cells. Kind of data set: DAPI nuclear staining. The format is cell-based, human. The following applies: 0.5, 1, 2.5 and 5 µM, 72 h. The method, then: After treatment with compound 4q for 72 h, lung cancer cell line A549 were washed with PBS then fixed with 4% formaldehyde for 10 min and then permeabilized with 0.1% Tween 20 followed by staining with 1 µM DAPI. Control and treated cells were observed under fluorescence microscope with excitation at 359 nm and emission at 461 nm using DAPI filter at 200X magnification (Sgorbati et al., 1986).

Data set [3] concerns A549 cells. Kind of data set: Morphological observation, phase contrast microscope. The format is cell-based, human. To be noted: 0.5, 1, 2.5 and 5 µM, 72 h. The method, then: A549 cells were plated in 12 well culture plates with a cell density of 1.2x10^5 cells/ml and allowed to adhere for 24 h. Then the cells were incubated with 0.5, 1, 2.5 and 5 µM concentrations of compound 4q. After 72 h treatment, cells were monitored for the morphological changes and the images were captured under a phase contrast microscope (Nikon, Inc. Japan) at 200X magnification.

For data set [4], the system named is A549 cells. The data set can be described thus: Cell cycle analysis (propidium iodide, flow cytometry). The format is cell-based, human. The protocol: In order to reveal whether arrest of cell cycle was mechanistically responsible for sensitizing lung cancer cells towards apoptosis, the flow cytometric analysis was performed to analyse the distribution of the cell population in various cell cycle phases (Mani et al., 2017). Here, A549 cancer cells were incubated with compound 4q at various concentrations ranging from 0.5 to 5 µM for 48 h. Untreated and treated cells were harvested, washed and fixed overnight in 70% ethanol in PBS at -20 °C. Fixed cells were pelleted and stained with cell cycle analysis reagent propidium iodide (50 μg/ml) with RNase A for 20 min at 37 °C in dark and about 10,000 events were acquired and analyzed on a flow cytometer (Kumar et al., 2018a).

Data set [5] relates to A549 cells. The data set can be described thus: Annexin V-FITC/PI apoptosis assay (flow cytometry). Type of data set: cell-based, human. To be noted: 72 h. The text has this:
A fundamental part of apoptosis is the flipping of phosphatidyl serine (PS) from the inner surface to the outer surface of the plasma layer of the cells. PS is a component of phospholipid usually located on the cytoplasmic surface of the cell layer in viable cells. When the apoptotic condition is initiated in a cell, PS is no more restricted to the cytosolic region and will flip on the surface of the cell. Translocation of PS is considered to be a hall mark of apoptosis (Zhu et al., 2015). To experimentally address this phenomenon briefly, 1 X 10^5 cells were seeded in a 12-well plate and treated with different concentration of compound 4q and incubated for 72 h. Then untreated and treated cells were harvested and the cells were processed with annexin V-FITC and Propidium Iodide (PI) staining (Bio Legend), according to the manufacturer’s instructions. Further, early/late apoptosis and necrosis parameters were analyzed with quadrant statistics on propidium iodide-negative cells, fluorescein positive cells and propidium iodide-positive cells, respectively.

Molecules are shown by their SMILES. Entries after “also recorded” stand apart in the source; their conditions may differ.

Usually melting point stands for the temperature of the solid-liquid transition. Molecule `C1=CC2=NC3=C(CCCC3)C(c3cn(Cc4ccccc4)c4ccccc34)N2C=C1` (centres unmarked) [Compound 4i, 11-(1-benzyl-1H-indol-3-yl)-2,3,4, 11-tetrahydro-1H-pyrido [2,1-b] quinazoline] displayed a melting point of 185 to 186 °C. Further, the “apoptotic morphology by AO/EB staining” value in data set [1] is on record as “induced apoptosis in A549 lung cancer cells”. For the same molecule, the “nuclear changes by DAPI staining” value in data set [2] was “chromatin condensation, nuclear fragmentation, and horse shoe shaped nucleus”. In data set [3], the “morphological changes (phase contrast)” value was “shrinkage of cells and resulted in increased number of dead cells with increase in concentration”. In data set [4] (5 µM, control 63.53%), the “percentage of cells in G0/G1” value is recorded as 80.02%. Further, the “cell cycle phase arrest” value in data set [4] (0.5 to 5 µM) was “arrests the A549 cancer cell lines at the G0/G1 phase; also recorded: G0/G1 arrest of the cell cycle”. For the same molecule, in data set [5] (5 µM, control 4.08 %), the “percentage of early apoptotic cells (EA; AV+/PI-)” value turned out to be 26.90%. Besides, the “apoptosis induction (Annexin V-FITC/PI)” value in data set [5] (0.5 to 5 µM) is “significant early apoptosis”.
